{"source": "PubChem BioAssay (NCI)", "test_in_all_cases": "inhibition of tumour cell growth, NCI panel, 48 h", "key": {"NCI/ADR-RES ovarian": {"system": "NCI/ADR-RES ovarian"}, "U251 CNS": {"system": "U251 CNS"}, "OVCAR-8 ovarian": {"system": "OVCAR-8 ovarian"}, "A498 renal": {"system": "A498 renal"}, "SW-620 colon": {"system": "SW-620 colon"}, "LOX IMVI melanoma": {"system": "LOX IMVI melanoma"}, "MDA-MB-435": {"system": "MDA-MB-435"}, "ACHN renal": {"system": "ACHN renal"}, "MCF7 breast": {"system": "MCF7 breast"}, "EKVX NSCLC": {"system": "EKVX NSCLC"}, "NCI-H460 lung": {"system": "NCI-H460 lung"}, "IGROV1 ovarian": {"system": "IGROV1 ovarian"}, "BT-549 breast": {"system": "BT-549 breast"}, "A549 NSCLC": {"system": "A549 NSCLC"}, "HOP-62 NSCLC": {"system": "HOP-62 NSCLC"}, "OVCAR-3 ovarian": {"system": "OVCAR-3 ovarian"}, "DU-145 prostate": {"system": "DU-145 prostate"}, "NCI-H23 lung": {"system": "NCI-H23 lung"}, "NCI-H522 lung": {"system": "NCI-H522 lung"}, "SK-MEL-2 melanoma": {"system": "SK-MEL-2 melanoma"}, "SNB-75 CNS": {"system": "SNB-75 CNS"}, "OVCAR-5 ovarian": {"system": "OVCAR-5 ovarian"}, "HCT-15 colon": {"system": "HCT-15 colon"}, "UACC-62 melanoma": {"system": "UACC-62 melanoma"}, "TK-10 renal": {"system": "TK-10 renal"}, "SR leukemia": {"system": "SR leukemia"}, "SK-MEL-5 melanoma": {"system": "SK-MEL-5 melanoma"}, "COLO 205 colon": {"system": "COLO 205 colon"}}, "note": "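Step 1: Grow cells in 96-well plates. Step 2: Expose to compound for 48 hours at 5 concentrations. Step 3: Interpolate endpoints linearly; if unreached, use highest concentration. At the GI50, growth is halved. TGI marks complete inhibition of growth.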"}
{"smiles": "C=C1C(=O)O[C@@H]2C[C@@H](C)/C=C\\C(=O)[C@](C)(OC(C)=O)C[C@H](OC(=O)/C(C)=C\\C)[C@@H]12", "values": [{"measurement": "GI50", "setting": "NCI/ADR-RES ovarian", "result": 2.8, "unit": "µM"}, {"measurement": "TGI", "setting": "NCI/ADR-RES ovarian", "result": "> 25", "unit": "µM"}, {"measurement": "GI50", "setting": "U251 CNS", "result": 3.7, "unit": "µM"}, {"measurement": "TGI", "setting": "U251 CNS", "result": 8.64, "unit": "µM"}, {"measurement": "GI50", "setting": "OVCAR-8 ovarian", "result": 1.11, "unit": "µM"}, {"measurement": "TGI", "setting": "OVCAR-8 ovarian", "result": 23.9, "unit": "µM"}, {"measurement": "GI50", "setting": "A498 renal", "result": 6.15, "unit": "µM"}, {"measurement": "TGI", "setting": "A498 renal", "result": 13.5, "unit": "µM"}, {"measurement": "GI50", "setting": "SW-620 colon", "result": 1.01, "unit": "µM"}, {"measurement": "TGI", "setting": "SW-620 colon", "result": 3.54, "unit": "µM"}, {"measurement": "GI50", "setting": "LOX IMVI melanoma", "result": 2.88, "unit": "µM"}, {"measurement": "TGI", "setting": "LOX IMVI melanoma", "result": 6.18, "unit": "µM"}, {"measurement": "GI50", "setting": "MDA-MB-435", "result": 3.91, "unit": "µM"}, {"measurement": "TGI", "setting": "MDA-MB-435", "result": 12.4, "unit": "µM"}, {"measurement": "GI50", "setting": "ACHN renal", "result": 0.466, "unit": "µM"}, {"measurement": "TGI", "setting": "ACHN renal", "result": 0.885, "unit": "µM"}, {"measurement": "GI50", "setting": "MCF7 breast", "result": 0.971, "unit": "µM"}, {"measurement": "TGI", "setting": "MCF7 breast", "result": 5.6, "unit": "µM"}, {"measurement": "GI50", "setting": "EKVX NSCLC", "result": 2.63, "unit": "µM"}, {"measurement": "TGI", "setting": "EKVX NSCLC", "result": 6.27, "unit": "µM"}, {"measurement": "GI50", "setting": "NCI-H460 lung", "result": 7.02, "unit": "µM"}, {"measurement": "TGI", "setting": "NCI-H460 lung", "result": 23.6, "unit": "µM"}, {"measurement": "GI50", "setting": "IGROV1 ovarian", "result": 4.31, "unit": "µM"}, {"measurement": "TGI", "setting": "IGROV1 ovarian", "result": 9.91, "unit": "µM"}, {"measurement": "GI50", "setting": "BT-549 breast", "result": 3.02, "unit": "µM"}, {"measurement": "TGI", "setting": "BT-549 breast", "result": 6.31, "unit": "µM"}, {"measurement": "GI50", "setting": "A549 NSCLC", "result": 7.78, "unit": "µM"}, {"measurement": "TGI", "setting": "A549 NSCLC", "result": 24.2, "unit": "µM"}, {"measurement": "GI50", "setting": "HOP-62 NSCLC", "result": 7.2, "unit": "µM"}, {"measurement": "TGI", "setting": "HOP-62 NSCLC", "result": 20.7, "unit": "µM"}, {"measurement": "GI50", "setting": "OVCAR-3 ovarian", "result": 0.94, "unit": "µM"}, {"measurement": "TGI", "setting": "OVCAR-3 ovarian", "result": 3.2, "unit": "µM"}, {"measurement": "GI50", "setting": "DU-145 prostate", "result": 2.52, "unit": "µM"}, {"measurement": "TGI", "setting": "DU-145 prostate", "result": 6.12, "unit": "µM"}, {"measurement": "GI50", "setting": "NCI-H23 lung", "result": 1.21, "unit": "µM"}, {"measurement": "TGI", "setting": "NCI-H23 lung", "result": 5.95, "unit": "µM"}, {"measurement": "GI50", "setting": "NCI-H522 lung", "result": 0.508, "unit": "µM"}, {"measurement": "TGI", "setting": "NCI-H522 lung", "result": 1.22, "unit": "µM"}, {"measurement": "GI50", "setting": "SK-MEL-2 melanoma", "result": 4.45, "unit": "µM"}, {"measurement": "TGI", "setting": "SK-MEL-2 melanoma", "result": 12.1, "unit": "µM"}, {"measurement": "GI50", "setting": "SNB-75 CNS", "result": 4.07, "unit": "µM"}, {"measurement": "TGI", "setting": "SNB-75 CNS", "result": 17.6, "unit": "µM"}, {"measurement": "GI50", "setting": "OVCAR-5 ovarian", "result": 2.53, "unit": "µM"}, {"measurement": "TGI", "setting": "OVCAR-5 ovarian", "result": 5.97, "unit": "µM"}, {"measurement": "GI50", "setting": "HCT-15 colon", "result": 0.675, "unit": "µM"}, {"measurement": "TGI", "setting": "HCT-15 colon", "result": 2.13, "unit": "µM"}, {"measurement": "GI50", "setting": "UACC-62 melanoma", "result": 1.55, "unit": "µM"}, {"measurement": "TGI", "setting": "UACC-62 melanoma", "result": 5.93, "unit": "µM"}, {"measurement": "GI50", "setting": "TK-10 renal", "result": 0.996, "unit": "µM"}, {"measurement": "TGI", "setting": "TK-10 renal", "result": 3.32, "unit": "µM"}, {"measurement": "GI50", "setting": "SR leukemia", "result": 0.845, "unit": "µM"}, {"measurement": "TGI", "setting": "SR leukemia", "result": 5.2, "unit": "µM"}, {"measurement": "GI50", "setting": "SK-MEL-5 melanoma", "result": 3.7, "unit": "µM"}, {"measurement": "TGI", "setting": "SK-MEL-5 melanoma", "result": 7.25, "unit": "µM"}, {"measurement": "GI50", "setting": "COLO 205 colon", "result": 0.75, "unit": "µM"}, {"measurement": "TGI", "setting": "COLO 205 colon", "result": 2.6, "unit": "µM"}]}
